As a reminder, the IC50 is the concentration that gives 50% inhibition.

In patent US20250179083A1, “TRICYCLIC TRIAZOLO COMPOUNDS AS DGK INHIBITORS” (Incyte Corporation, priority 2023, published 2025) one finds IC50 data, which are given here for 10 compounds.

For one assay, the target named is T1, DGKα (Homo sapiens, UniProt P23743).
T1 construct: His; purchased Signal Chem D21-10BH
The experiment in a line: In vitro DGKα inhibition assay (ADP-Glo). The format is biochemical. The following applies: His-tagged human recombinant DGKα 0.1 nM, 50 μM ATP, 20 μM DLG, 90 minute incubation. The method, then: (§1) The DGKα and DGKζ biochemical reactions were performed using His-tagged human recombinant enzymes (Signal Chem, DGKα, #D21-10BH; DGKζ, #D30-10H)) and DLG (Dilauroyl-sn-glycerol) lipid substrate (Signal Chem, #D430-59). ADP-Glo assay was performed using ADP-Glo™ kinase Assay kit (Promega, #V9104). The reactions were carried out in assay buffer containing 40 mM Tris, pH 7.5, 0.1% CHAPS, 0.1% Prionex, 40 mM NaCl, 5 mM MgCl2, 1 mM CaCl2, and 1 mM DTT. DGKα reactions contained 0.1 nM DGKα, 50 μM ATP, and 20 μM DLG. And DGKζ reactions contained 0.4 nM DGKζ, 30 μM ATP, and 20 μM DLG.
(§2) Compounds were added with top concentration of 2 mM with 11 point, 3-fold dilution series. Enzyme solution (contains 2×DGK enzyme concentration in 1× assay buffer) was added to the plate in 2 μL/well volume, followed by 2 μL/well of substrate solution (contains 2× concentration of ATP and DLG substrate in 1× assay buffer). Plates were then centrifuged for 1 min at 1200 RPM and sealed or lidded. For 4 μL reaction volume, test compounds were therefore diluted 100× to final top concentration of 20 μM. After 90 minute incubation, reactions were quenched by addition of 2 μL/well Promega ADP-Glo Reagent, followed by centrifugation and lidding. After 60 min incubation, 2 μL/well Promega Kinase Detection Reagent was added, plates centrifuged, and incubated for 30 min. Plates were then read using Luminescence method on BMG PHERAstar FSX plate reader. Percent inhibition was calculated and IC50s were determined using 4-parameter fit in Genedata Screener. Labcyte Echo acoustic dispenser was used for compound addition, and Formulatrix Tempest liquid handler was used for all reagent dispenses.
(ADP-Glo first removes unused ATP, then detects ADP through luciferase.)

The target in a further assay is T2, DGKζ (Homo sapiens, UniProt Q13574).
T2 construct: His; purchased Signal Chem D30-10H
T2 sequence (Q13574 whole entry): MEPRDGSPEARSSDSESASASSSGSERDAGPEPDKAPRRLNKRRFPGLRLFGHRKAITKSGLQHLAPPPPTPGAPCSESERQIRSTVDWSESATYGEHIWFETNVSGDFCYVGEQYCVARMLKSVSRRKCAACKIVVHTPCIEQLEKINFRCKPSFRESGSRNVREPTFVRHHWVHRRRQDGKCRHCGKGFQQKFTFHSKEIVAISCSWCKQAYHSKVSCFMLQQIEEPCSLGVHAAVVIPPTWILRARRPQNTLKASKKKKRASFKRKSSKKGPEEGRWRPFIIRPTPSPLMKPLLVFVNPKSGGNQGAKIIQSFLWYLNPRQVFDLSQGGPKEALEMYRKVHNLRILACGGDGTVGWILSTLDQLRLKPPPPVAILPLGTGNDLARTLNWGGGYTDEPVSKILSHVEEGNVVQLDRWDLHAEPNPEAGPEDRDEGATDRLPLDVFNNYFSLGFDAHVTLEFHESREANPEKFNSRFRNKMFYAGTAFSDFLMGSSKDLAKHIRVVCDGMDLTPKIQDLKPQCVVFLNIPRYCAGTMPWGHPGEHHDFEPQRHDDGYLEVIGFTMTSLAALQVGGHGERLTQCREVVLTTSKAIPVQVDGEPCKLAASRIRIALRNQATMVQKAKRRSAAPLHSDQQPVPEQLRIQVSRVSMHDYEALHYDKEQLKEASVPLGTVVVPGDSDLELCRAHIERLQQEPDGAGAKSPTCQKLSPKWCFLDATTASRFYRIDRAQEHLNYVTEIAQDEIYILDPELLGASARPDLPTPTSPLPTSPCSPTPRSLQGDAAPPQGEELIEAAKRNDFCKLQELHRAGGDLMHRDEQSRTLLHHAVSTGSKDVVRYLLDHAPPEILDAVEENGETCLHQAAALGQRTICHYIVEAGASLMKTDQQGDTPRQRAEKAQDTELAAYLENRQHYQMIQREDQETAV
Kind of assay: In vitro DGKζ inhibition assay (ADP-Glo). Type of assay: biochemical. The following applies: His-tagged human recombinant DGKζ 0.4 nM, 30 μM ATP, 20 μM DLG, 90 minute incubation. The method, then: as §1, §2

T1 sequence (P23743 whole entry): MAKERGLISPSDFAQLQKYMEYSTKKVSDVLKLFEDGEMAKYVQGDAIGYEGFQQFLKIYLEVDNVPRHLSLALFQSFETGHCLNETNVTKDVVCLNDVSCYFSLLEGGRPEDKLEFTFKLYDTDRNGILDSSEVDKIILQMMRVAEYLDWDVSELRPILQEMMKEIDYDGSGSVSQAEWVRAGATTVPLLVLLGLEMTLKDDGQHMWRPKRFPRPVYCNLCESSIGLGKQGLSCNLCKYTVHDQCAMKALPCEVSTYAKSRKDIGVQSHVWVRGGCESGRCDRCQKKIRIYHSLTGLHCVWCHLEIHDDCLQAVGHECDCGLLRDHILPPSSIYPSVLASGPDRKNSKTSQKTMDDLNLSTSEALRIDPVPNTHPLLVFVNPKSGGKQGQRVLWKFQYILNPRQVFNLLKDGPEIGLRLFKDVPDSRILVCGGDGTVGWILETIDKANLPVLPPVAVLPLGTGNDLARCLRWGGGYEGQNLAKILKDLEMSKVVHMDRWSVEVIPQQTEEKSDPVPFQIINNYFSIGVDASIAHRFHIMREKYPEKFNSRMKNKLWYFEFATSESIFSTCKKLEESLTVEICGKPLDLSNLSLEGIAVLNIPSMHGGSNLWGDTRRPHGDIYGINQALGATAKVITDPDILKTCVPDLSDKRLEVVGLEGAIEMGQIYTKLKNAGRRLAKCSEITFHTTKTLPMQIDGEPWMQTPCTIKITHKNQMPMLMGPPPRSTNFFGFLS

For `C[C@@H]1CN(c2nc3nncn3c3c2ncn3C[C@@H]2CCCO2)[C@@H](C)CN1C(c1ccc(Cl)cc1F)C1CC(F)(F)C1` (stereo partly drawn) [Example 31, 4-((2S,5R)-4-((4-Chloro-2-fluorophenyl)(3,3-difluorocyclobutyl)methyl)-2,5-dimethylpiperazin-1-yl)-1-(((S)-tetrahydrofuran-2-yl)methyl)-1H-[1,2,4]triazolo[3,4-b]purine], the half-maximal inhibitory concentration (IC50) at DGKα and on DGKζ was < 20 nM in each case.

For the compound `C[C@@H]1CN(c2nc3nncn3c3c2ncn3C[C@@H]2CCCO2)[C@@H](C)CN1C(c1ccc(Cl)cn1)c1ccc(Cl)cn1` [Example 20, 4-((2S,5R)-4-(Bis(5-chloropyridin-2-yl)methyl)-2,5-dimethylpiperazin-1-yl)-1-(((S)-tetrahydrofuran-2-yl)methyl)-1H-[1,2,4]triazolo[3,4-b]purine], the IC50 at DGKα and on DGKζ was < 20 nM throughout.

Regarding `C[C@@H]1CN(c2nc3nncn3c3c2ncn3C[C@@H]2CCCO2)[C@@H](C)CN1[C@@H](c1ccc(Cl)cc1)c1ccc(Cl)cn1` (single isomer, unassigned) [Example 21], the IC50 at DGKα and at DGKζ was < 20 nM in each case.

For the compound `Cc1nc2c(N3C[C@@H](C)N(C(c4ccc(Cl)cc4)C4CC4)C[C@@H]3C)nc3nncn3c2n1C[C@@H]1CCCO1` (stereo partly drawn) [Example 54, 4-((2S,5R)-4-((4-Chlorophenyl)(cyclopropyl)methyl)-2,5-dimethylpiperazin-1-yl)-2-methyl-1-(((S)-tetrahydrofuran-2-yl)methyl)-1H-[1,2,4]triazolo[3,4-b]purine], the IC50 on DGKα and on DGKζ was < 20 nM throughout.

Regarding `C[C@@H]1CN(c2nc3nncn3c3c2ncn3C[C@@H]2CCCO2)[C@@H](C)CN1C(c1ccc(Cl)cc1)[C@@H]1CC1(F)F` (single isomer, unassigned) [Example 6], the IC50 at DGKα and at DGKζ was < 20 nM each time.

`Cc1nc2c(N3C[C@@H](C)N(C(c4ccc(C(F)(F)F)cc4)C4CC(F)(F)C4)C[C@@H]3C)cc3nncn3c2n1C[C@@H]1CCCO1` (single isomer, unassigned) [Example 49]: the IC50 on DGKα and at DGKζ was < 20 nM each time.

In the case of `C[C@@H]1CN(c2nc3nncn3c3c2ncn3C[C@@H]2CCCO2)[C@@H](C)CN1C(C[C@@H](C)C(F)(F)F)c1ccc(Cl)cc1` (single isomer, unassigned) [Example 11], the IC50 on DGKα and on DGKζ was < 20 nM throughout.

On to `Cc1nc2c(N3C[C@@H](C)N(C(c4ccc(C(F)F)cc4F)C4CC(F)(F)C4)C[C@@H]3C)nc3nncn3c2n1C[C@@H]1CCCO1` (stereo partly drawn) [Example 3, 4-((2S,5R)-4-((3,3-Difluorocyclobutyl)(4-(difluoromethyl)-2-fluorophenyl)methyl)-2,5-dimethylpiperazin-1-yl)-2-methyl-1-(((S)-tetrahydrofuran-2-yl)methyl)-1H-[1,2,4]triazolo[3,4-b]purine], for which the IC50 at DGKα and at DGKζ was < 20 nM in each case.

For the compound `CC(C)CC(c1ccc(Cl)cc1)N1C[C@H](C)N(c2nc3nncn3c3c2ncn3C[C@@H]2CCCO2)C[C@H]1C` (single isomer, unassigned) [Example 9], the IC50 at DGKα and at DGKζ was < 20 nM throughout.

Regarding `Cc1nc2c(N3C[C@@H](C)N([C@H](c4ccc5cc(C(F)(F)F)ccc5n4)C(C)C)C[C@@H]3C)nc3nncn3c2n1C[C@@H]1CCCO1` [Example 63, 4-((2S,5R)-2,5-Dimethyl-4-((S)-2-methyl-1-(6-(trifluoromethyl)quinolin-2-yl)propyl)piperazin-1-yl)-2-methyl-1-(((S)-tetrahydrofuran-2-yl)methyl)-1H-[1,2,4]triazolo[3,4-b]purine], the IC50 at DGKα and at DGKζ was < 20 nM each time.
